SMILES strings stand for the structures. Read-outs that look alike come from different tables or passages of the source. Bounds are passed on as bounds.

One data set relates to MRC-5 cells. The data set is described as follows: Cellular toxicity to MRC-5 cells (XTT). Particulars: 6 days, duplicate data points.
Another data set deals with HCoV-229E. Nature of the data set: Anti-coronavirus cytoprotection assay (XTT, reduction of viral cytopathic effect) in MRC-5 cells. As to conditions: for activity against HCoV-229E at the tested concentrations: MRC-5 cells, high test concentration 100 µM; for Therapeutic Index (TC50/EC50): MRC-5/HCoV-229E.
The mark [1] stands for this setting: Human coronavirus 229E, MRC5, 144 h, read-out: EC50 (effective concentration that reduced 50% of viral cytopathic effect), HCoV-229E in MRC-5 cells, 6 days, triplicate data points.
[2] abbreviates: listed as 5′-O-tetradecanoyl ester conjugate of FTC (9).

As to `C#C[C@]1(CO)O[C@@H](n2cnc3c(N)nc(F)nc32)C[C@@H]1O` [EFdA (3), 4′-ethynyl-2-fluoro-2′-deoxyadenosine], the entries for the “TC50 (toxic concentration that killed 50% of MRC-5 cells)” value in the data set on MRC-5 cells and in the data set on MRC-5 cells (listed as 3) were 55.3 µM and 45.4 to 55.3 µM, respectively. The EC50 with HCoV-229E (setting [1]) was above 55.3 µM.
As for `Nc1nc(=O)n([C@H]2CS[C@@H](CO)O2)cc1F` [FTC (8), 2′,3′-dideoxy-5-fluoro-3′-thiacytidine], in the data set on MRC-5 cells, the “TC50 (toxic concentration that killed 50% of MRC-5 cells)” value is listed as above 100 µM. Also, in the data set with HCoV-229E (setting [1]), the EC50 is above 100 µM. Moreover, the “activity against HCoV-229E at the tested concentrations” value (“activity against HCoV-229E” for short) in the data set on HCoV-229E was “not active”.
For the compound `CCC(CC)COC(=O)[C@H](C)N[P@](=O)(OC[C@H]1O[C@@](C#N)(c2ccc3c(N)ncnn23)[C@H](O)[C@@H]1O)Oc1ccccc1` [Remdesivir (1), Remdesivir], the “TC50 (toxic concentration that killed 50% of MRC-5 cells)” value in the data set with MRC-5 cells is recorded as above 2.0 µM; in the data set on MRC-5 cells (listed as Remdesivir), above 2.0 µM; in the data set on MRC-5 cells (listed as remdesivir), above 2.00 µM; in the data set with MRC-5 cells (listed as remdesivir (1)), above 2 ± 0 µM. The EC50 in the data set with HCoV-229E (setting [1]) turned out to be 0.067 ± 0.012 µM; in the data set on HCoV-229E (read-out: EC50 (effective concentration that reduced 50% of viral cytopathic effect), HCoV-229E in MRC-5 cells, 6 days, triplicate data points), 0.07 µM.
Take `C[C@H](Cn1cnc2c(N)ncnc21)OCP(=O)(O)O` [TFV (2), Tenofovir]: the “TC50 (toxic concentration that killed 50% of MRC-5 cells)” value in the data set with MRC-5 cells is above 100 µM. In addition, the EC50 in the data set on HCoV-229E (setting [1]) is above 100 µM.
On to `Cc1cn([C@H]2C[C@H](F)[C@@H](CO)O2)c(=O)[nH]c1=O` [FLT (4), 3′-Fluoro-3′-deoxythymidine], for which the “TC50 (toxic concentration that killed 50% of MRC-5 cells)” value in the data set on MRC-5 cells is above 100 µM. Further, in the data set with HCoV-229E (setting [1]), the EC50 is above 100 µM. In the data set on HCoV-229E, the “activity against HCoV-229E” value was “not active”.
Take `CCCCCCCCCCCCCC(=O)OC[C@@H]1O[C@H](n2cc(F)c(N)nc2=O)CS1` [5′-O-(tetradecanoyl)FTC (9), 5′-O-(tetradecanoyl)FTC]: the “TC50 (toxic concentration that killed 50% of MRC-5 cells)” value with MRC-5 cells turned out to be 87.5 µM; in the data set with MRC-5 cells (setting [2]), 87.5 ± 1.34 µM. The EC50 in the data set with HCoV-229E (setting [1]) was 72.8 µM. For the same compound, the entries for the “Therapeutic Index (TC50/EC50)” value in the data set with HCoV-229E and in the data set on HCoV-229E (setting [2]) were 1.20 and 1.2, respectively.
For `CCCCCCCCCCCCCC(=O)OC[C@@H]1O[C@H](n2ccc(N)nc2=O)CS1` [5′-O-(tetradecanoyl)3TC (7), 5′-O-(tetradecanoyl)3TC], the “TC50 (toxic concentration that killed 50% of MRC-5 cells)” value in the data set on MRC-5 cells was 47.5 µM; with MRC-5 cells (listed as 7), 45.4 to 55.3 µM. Besides, the EC50 in the data set with HCoV-229E (setting [1]) is above 47.5 µM.
As for `CCSCCCCCCCCCCCC(=O)OC[C@H]1O[C@@H](n2cc(C)c(=O)[nH]c2=O)C[C@@H]1F` [5′-O-(12-thioethydodecanoyl)FLT (5), 5′-O-(12-thioethydodecanoyl)FLT], the “TC50 (toxic concentration that killed 50% of MRC-5 cells)” value is 45.4 µM in the data set on MRC-5 cells and 45.4 to 55.3 µM with MRC-5 cells (listed as 5). Also, the EC50 with HCoV-229E (setting [1]) is above 45.4 µM.
As for `Nc1ccn([C@H]2CS[C@@H](CO)O2)c(=O)n1` [3TC (6), 2′,3′-Dideoxy-3′-thiacytidine], the “TC50 (toxic concentration that killed 50% of MRC-5 cells)” value in the data set with MRC-5 cells is given as above 100 µM. Moreover, in the data set with HCoV-229E (setting [1]), the EC50 was above 100 µM. Moreover, in the data set on HCoV-229E, the “activity against HCoV-229E” value was “not active”.

The values are drawn from PMC7287735 (Molecules, 2020).
